Measurements as given in patent publication US20150223457A1, “METHOD OF COMBATTING SOYBEAN SUDDEN DEATH SYNDROME USING SUBSTITUTED PYRAZOLAMIDES” (Syngenta Participations AG, priority 2012, published 2015).

Assays:
Fusarium virguliforme [1] = test: Sensitivity of F. virguliforme isolates: mycelial growth inhibition on amended potato dextrose agar plates; type: cell-based; settings: for ED50 (effective dose for 50% of the fungal growth inhibition): potato dextrose agar, 20° C., 9 days
Description: The sensitivity of 4 F. virguliforme isolates to the compound No. 1.001 was determined by comparing the mycelial growth inhibition of on potato dextrose agar plates amended or not with the compound No. 1.001. The compound No. 1.001 was tested at the following concentrations: 0, 0.001, 0.01, 0.1, 1 and 10 mg.ai./L. The fungicide fludioxonil (commercial formulation Maxim 4 FS) was included in the sensitivity study. The plates were incubated at 20° C. for 9 days. The sensitivity test was set in a completely randomized design with 2 replications for each concentration of fungicide tested. Data obtained for each isolate was transformed using an arcsine transformation. The effective dose for 50% of the fungal growth inhibition (ED50 values) was calculated by regressing the transformed growth inhibition data against the log of the fungicide concentration.

Fusarium virguliforme [2] = test: Seed treatment efficacy against soybean sudden death syndrome (inoculated seeds in rolled paper towels); type: in vivo; settings: fungicide rate 2.5 mg a.i./100 kg seed; soybean cultivar S36-B6, isolate 10-118, hypocotyls and roots, 19 days at 18° C., mean of 3 replications
Description: A study was conducted to determine the efficacy of the compound No. 1.001 against F. virguliforme the causal agent of the sudden death syndrome on soybeans. Soybean seeds of the cultivar S36-B6 were treated with the compound No. […] […] Ten soybean seeds were placed on a paper towel (Scotts paper towels, 25.4 cm×33.02 cm in size) that has been previously moistened with 40 milliliters of water. Seeds were inculated with 100 microliters of a F. virguliforme conidial suspension adjusted to 100,000 conidia per milliliter of water. The isolate with the identification number 10-118 of F. virguliforme was used used in this study since it is sensitive to fludioxonil. Inoculated seeds seeds were then covered with another paper towel. Starting at one end, the paper towels with seeds were rolled loosely in a cylinder-fashion. The rolled paper towels with the inoculated seeds were placed into a zipped plastic bag. Bags were labelled with the fungicide treatment and dated. Bags with seeds were then placed in a growth room at a temperature of 18° C. and 12 h photoperiod for 19 days. The study was conducted using a completely randomized design with 3 replications. Disease severity was conducted on the hypocotyls and roots and measured as percentage.

SMILES: N#Cc1c[nH]cc1-c1cccc2c1OC(F)(F)O2 [Fludioxonil, fludioxonil]
- ED50 (effective dose for 50% of the fungal growth inhibition) (Fusarium virguliforme [1]; isolate 10-118): 0.206 mg ai/L
- ED50 (effective dose for 50% of the fungal growth inhibition) (Fusarium virguliforme [1]; isolate 10-119): >10 mg ai/L
- ED50 (effective dose for 50% of the fungal growth inhibition) (Fusarium virguliforme [1]; isolate 10-120): >10 mg ai/L
- ED50 (effective dose for 50% of the fungal growth inhibition) (Fusarium virguliforme [1]; isolate 10-230): >10 mg ai/L
- sensitivity of isolate to the fungicide (in words) (Fusarium virguliforme [1]; one isolate of 4): sensitive
- dose response of isolates to the fungicide (in words) (Fusarium virguliforme [1]; the other 3 isolates of 4): not a dose response
- % disease severity (Fusarium virguliforme [2]): 20.9%
